# Several values for one entry are separate records, joined by “and”; a condition that tells them apart may be missing. Identical values can stand only once. Like-named read-outs stand apart in the source and are kept apart here.
# How the values were obtained:
# [1] = system: P. falciparum chloroquine sensitive strain PoW; parameters: method as in PMID 12601673; details: cited from earlier work
# [2] = system: P. falciparum chloroquine-resistant strain Dd2; parameters: method as in PMID 12601673; details: cited from earlier work
# [3] = Cytotoxicity test against mammalian cells (L6); details: rat
# [4] = system: Trypanosoma brucei rhodesiense (bloodstream trypomastigotes, STIB 900 strain); experiment: In vitro activity against T. b. rhodesiense bloodstream trypomastigotes (STIB 900); type: cell-based; details: for SI (selectivity index): ratio of cytotoxic (L6) over antiprotozoal (Tbr) IC50 values
# [5] = system: P. falciparum (multidrug resistance strain K1); parameters: method as in PMID 24242110; details: cited from earlier work
# [6] = system: Plasmodium falciparum (intra erythrocytic forms, NF54 IEF strain); experiment: In vitro activity against P. falciparum intra-erythrocytic forms (NF54); type: cell-based; details: NF54, read-out: IC50 Pf (crude extracts)
# [7] = system: Leishmania donovani (amastigotes, MHOM-ET-67/L82 strain); experiment: In vitro activity against L. donovani amastigotes (MHOM-ET-67/L82); type: cell-based; details: Table 1, MHOM-ET-67/L82 amastigotes, values marked a: only one replicate, others mean of two ± SD, read-out: IC50 Ldon (crude extracts)
# [8] = Table 3, STIB 900 trypomastigotes, pure compounds, read-out: IC50 Tbr (elemanolides), value in brackets (converted)
# [9] = Trypanosoma brucei, Table 3, STIB 900 trypomastigotes, pure compounds, read-out: IC50 Tbr (elemanolides), value in brackets (converted)
# [10] = Trypanosoma brucei, Table 3, STIB 900 trypomastigotes, read-out: IC50 Tbr (elemanolides)
Compound,"IC50 [4, 8] [µM]","IC50 [4, 9] [µM]","IC50 [4, 10] [µg/mL]",SI (selectivity index) [4],IC50 [3],other results
"11,13-Dihydrovernodalin [Compound 6]",–,–,–,–,–,IC50 P. falciparum PoW [1]: 2.3 µg/mL; IC50 P. falciparum Dd2 [2]: 1.1 µg/mL
"C=CC12COC(=O)C(=C)C1C(O)C(C(=C)C(=O)OC)C(O)C2 (stereo not drawn) [Compound 1, 8-Desacylvernodalol]",2.53,2.5,0.779 ± 0.22,13.7,–,IC50 ([3]; L6 rat skeletal myoblast cells): 10.7 µg/mL and 34.6 µM
"C=C[C@@]12COC(=O)C(=C)[C@@H]1[C@H]1OC(=O)C(=C)[C@@H]1[C@@H](O)C2 [Compound 2, Vernolepin]",0.185,0.19,0.05,14.5,0.735 µg/mL and 2.68 µM,"IC50 Tbr (elemanolides) ([4]; Table 3, STIB 900 trypomastigotes): 0.051 ± 0.035 µg/mL; times more active than the crude extract (Tbr) ([4]; versus DCM crude extract): approximately 3.5"
"C=C[C@@]12COC(=O)C(=C)[C@@H]1[C@@H](O)[C@@H]1C(=C)C(=O)O[C@H]1C2 [Compound 3, Vernomenin]",–,0.508,0.14 ± 0.1,4.50,0.62 µg/mL and 2.26 µM,–
"C=C[C@@]12COC(=O)C(=C)[C@@H]1[C@@H](O)[C@H](C(=C)C(=O)OC)[C@@H](OC(=O)C(=C)CO)C2 [Compound 4, Vernodalol]",0.255,0.26,0.1 ± 0.041,14.4,–,"IC50 anti-plasmodial activity, P. falciparum K1 [5]: 4.2 µg/mL; IC50 ([3]; L6 rat skeletal myoblast cells): 1.44 µg/mL and 3.67 µM; factor by which more active than compound 1 (Tbr) ([4]; compound 4 versus compound 1): ~10"
"C=C[C@@]12COC(=O)C(=C)[C@@H]1[C@H]1OC(=O)C(=C)[C@@H]1[C@@H](OC(=O)C(=C)CO)C2 [Compound 5, Vernodalin]",–,–,–,–,–,"IC50 anti-plasmodial activity, P. falciparum K1 [5]: 4.0 µg/mL"
CCN(CC)CCCC(C)Nc1ccnc2cc(Cl)ccc12 (stereo not drawn) [chloroquine],–,–,–,–,–,IC50 [6]: 0.002 µg/mL
"Nc1nc(N)nc(Nc2ccc([As]3SCC(CO)S3)cc2)n1 (stereo not drawn) [melarsoprol, reference compound]",–,–,–,–,–,"IC50 ([4]; Trypanosoma brucei, read-out: IC50 Tbr (crude extracts)): 0.003 ± 0.001 µg/mL"
CCCCCCCCCCCCCCCCOP(=O)([O-])OCC[N+](C)(C)C [miltefosine],–,–,–,–,–,IC50 [7]: 0.091 ± 0.07 µg/mL
"COc1cc([C@@H]2c3cc4c(cc3[C@H](O)[C@H]3COC(=O)[C@H]23)OCO4)cc(OC)c1OC [podophyllotoxin, reference compound]",–,–,–,–,0.007 ± 0.001 µg/mL,–
